Data: publication PMC5161367, “Discovery of Novel Small Molecule Inhibitors of VEGF Expression in Tumor Cells Using a Cell-Based High Throughput Screening Platform” (PLoS ONE, 2016)

Tests used:
[1] = target: T1, phosphodiesterase 5 (PDE5) (Homo sapiens, UniProt O76074); experiment: PDE5 in vitro enzyme assay (fluorescence polarization); assay type: biochemical; conditions: tadalafil positive control
T1 construct: purchased CalBiochem 524715
Procedure: PDE5 activity was measured with a PDE5 assay kit (cat#: R8039, Molecular Devices) according to manufacturer’s instructions. PDE5 enzyme was purchased from CalBiochem (cat#: 524715). Tadalafil (Cialis® was used as a positive control. Assays were performed in 96-well plates in duplicate, the fluorescence polarization was determined on a ViewLux microplate reader (Perkin Elmer) using the instrument settings recommended by the manufacturer. (DOC) Click here for additional data file.
PDE5 activity was quantified usinga PDE5 assay kit (cat#: R8039, Molecular Devices) according to manufacturer’s instructions. PDE5 enzyme was purchased from CalBiochem (cat#: 524715). The positive control, tadalafil (Cialis®), was synthesized in house. Assays were performed in 96-well plates in duplicate and fluorescence polarization was determined on a ViewLux microplate reader (Perkin Elmer) using the instrument settings recommended by the manufacturer.

[2] = Microsome metabolism - murine; assay type: in vitro ADME, mouse
Procedure: (§1) Pharmacological characterization of PTC-510. Pharmacological assays were performed to characterize PTC-510, including metabolic stability in human, primate mouse and rat liver microsomes; absorption in Caco-2 cells; in vitro effect on hERG ion channel; pharmacokinetics; and acute toxicity in the rat.

VEGF mRNA UTRs reporter = experiment: UTR-selectivity luciferase reporter cell lines (VEGF vs HIF-1α, DPPIV UTRs); assay type: cell-based, human; conditions: HEK 293 luciferase reporter stable cell lines
From the text: (§2) Selective inhibition by PTC-510 of reporter gene expression mediated by VEGF mRNA UTRs. All luciferase reporter stable cell lines used in this study were generated from HEK 293 cells transfected with the luciferase reporter gene flanked with the UTRs derived from each target gene. HIF-1α: hypoxia Inducible Factor 1 alpha; DPPIV: dipeptidyl peptidase IV. (DOC) Click here for additional data file.
as §2, with “[picture] Selective” for “Selective”, “IV.” for “IV. (DOC) Click here for additional data file.”

[3] = Plasma exposure after a single oral dose in mice; assay type: in vivo, mouse; conditions: male C57BL/6 mice, single oral dose 10 mg/kg, 5% DMSO and 95% PEG300
Procedure: Supplementary file pone.0168366.s006.doc: S6 Fig Exposure of PTC-510 after oral administration. Male C57BL/6 mice were dosed with test compound in 5% DMSO and 95% PEG300. At specified time points (3 mice per time point), mice were euthanized and blood collected by terminal cardiac puncture. Plasma test compounds were then measured by LC/MS-MS. (DOC) Click here for additional data file.
Male C57BL/6 mice were administered test compounds in 5% DMSO and 95% PEG300 at a dose of 10 mg/kg. At specified time points (3 mice per time point), mice were euthanized and blood collected by terminal cardiac puncture. Plasma concentrations of test compounds were then quantified by LC/MS-MS.

[4] = Microsome metabolism - rat; assay type: in vitro ADME
Procedure: as §1

[5] = Cytotoxicity, CellTiter-Glo, foreskin fibroblasts; assay type: cell-based; conditions: human, primary foreskin fibroblasts, read-out: Cytotoxicity CC50, Foreskin Fibroblast
Procedure: The cytotoxicity of compounds was determined in peripheral blood mononuclear cells (PBMCs) and primary human foreskin fibroblasts, both purchased frozen from AllCells, Inc, CA. Cells were incubated with test compound at various concentrations in triplicate for a period of 3 days in 96-well plates. The cytotoxicity or inhibition of cell proliferation was determined using a standard CellTiter-Glo® Luminescent Cell Viability Assay (Promega, Madison, WI) that measures total cellular adenosine triphosphate (ATP) concentration as a function of cell viability. In addition, cytotoxicity assays were also performed in HeLa cells in parallel with VEGF ELISA to ensure that the inhibition of VEGF production in HeLa cells was not due to cytotoxicity.

TNFα = TNFα ELISA in CEM cells with IL-1 induction; assay type: cell-based; conditions: Homo sapiens, CCRF-CEM; CEM cells (T lymphoblasts) with 1 μg/mL IL-1 induction, 48 hours; read-out: ELISA EC50, TNFa
Procedure: Cells were treated with vehicle control (0.5% DMSO) or compounds at the indicated concentration for 48 hours, and specific proteins in conditioned medium were quantified using commercially available ELISA kits (R&D Systems) according to the manufacturer’s recommendations. VEGF was quantified in HeLa cells under hypoxia (1% oxygen); Tumor necrosis factor alpha (TNFα) was quantified in CEM cells stimulated with 1 μg/mL interleukin-1 beta (Sigma); erythropoietin (EPO) was quantified in HepB3 cells under hypoxic conditions (1% oxygen); and granulocyte colony-stimulating factor (G-CSF), basic fibroblast growth factor (FGF-2) and insulin-like growth factor 1 (IGF-1) were quantified without induction in HT1080 cells, HeLa cells and HepG2 cells, respectively.
Several target proteins were chosen as selectivity counter-screens, including TNF-alpha, FGF-2, G-CSF, IGF-1, and EPO. Similar to that of VEGF, the expression levels of these proteins are post-transcriptionally regulated, either through a 5’-UTR IRES, 3’-UTR AU-rich elements (AREs), or both.

Row | Compound | inhibition of PDE5 activity [1] | Microsome metabolism - murine, % loss @ 1 h [2] | VEGF UTR selectivity compared to UTRs of HIF-1α and DPPIV (VEGF mRNA UTRs reporter) | bio-availability and exposure compared to PTC-858 [3] | Microsome metabolism - rat, % loss @ 1 h [4] | CC50 at 72 hours [5] | EC50 (TNFα)
1 | COc1ccc(C2c3[nH]c4ccc(Br)cc4c3CC3C(=O)N(C4CCCCC4)C(=S)N32)cc1.O=C(O)C(F)(F)F (stereo not shown) [PTC-510, 9-bromo-2-cyclohexyl-5-(4-methoxyphenyl)-3-thioxo-2,3,5,6,11,11a-hexahydro-1H-imidazo[1’,5’:1,6]pyrido[3,4-b]indol-1-one trifluoroacetate] | did not inhibit PDE5 activity | 0% | VEGF UTR selective | much better bio-availability and exposure | 0% | – | –
2 | Brc1ccc2[nH]c3c(c2c1)CCCC3n1cccc1 (stereo not shown) [PTC-858, 6-bromo-1-(1H-pyrrol-1-yl)-2,3,4,9-tetrahydro-1H-carbazole] | – | – | – | – | – | > 30 µM | > 30 µM
